The source of these data is patent publication US8604172B2, “Humanized antibody compositions and methods for binding lysophosphatidic acid” (Lpath, Inc., priority 2009, dated 2013).

Marks after values point to notes of the source that are not given here.

One assay relates to IL-8 in Caki-1 cells. Put plainly: LPA-induced IL-8 production in Caki-1 cells. In kind it is cell-based, human. Conditions: 18:1 LPA (0.2 mM), non-treated cells, average. Here is the method:
Three anti-LPA mAbs (B3, B7 and B58) were tested for their abilities to reduce in vitro IL-8 production compared to a non-specific antibody (NS). Caki-1 cells were seeded in 96 well plates and grown to confluency. After overnight serum starvation, cells were treated with 18:1 LPA (0.2 mM) with or without anti-LPA mAb B3, B7, B58 or NS (Non-Specific). After 24 h, cultured supernatants of renal cancer cells (Caki-1), treated with or without LPA and in presence of increasing concentrations of the anti-LPA mAbs B3, B7 and B58, were collected and analyzed for IL-8 levels using a commercially available ELISA kit (Human Quantikine Kit, R&D Systems, Minneapolis, Minn.). […] The inhibition of IL-8 release by the anti-LPA mAbs was also observed in other cancerous cell lines such as the pancreatic cell line Panc-1.

The subject of another assay is SKOV3 cells. Nature of the assay: Scratch assay, SKOV3 tumor cell migration. In kind it is cell-based, human. Conditions: 17 hr. Here is the method:
SKOV3 cells were plated at 15,000 cells per well in a 96-well plate. The following day the cells were serum starved in minimal media (McCoy's Media 5a, adjusted to contain L-Glutamine, 2.2 g/L Sodium Bicarbonate, 1% penicillin/streptomycin and 1 mg/ml BSA) for 24 hrs. At time 0 cells were scratched with a p200 pipet tip down the center of each well, washed with minimal media and pictures were taken prior to treatment. Cells were then treated with LPA (C18:1) at 0.2 uM, 1.0 uM and 10 uM concentrations which were pre-incubated at 37° C. with […] in the presence or absence of antibody at 150 ug/ml. Positive control (10% FBS treated cells) and antibody alone added to 1 uM LPA, were also tested. Cells were stimulated for 17 hrs at 37° C. in a 5% CO2 incubator. Pictures were taken again 17 hr post-treatment and % wound closure was measured by adjusting pictures to the same size and measuring the width of the scratch at time 0 and time 17 hr with a ruler. Data were analyzed by Student's t-test.

For assay [1], the system named is IL-8 release in SKOV3 cells. Put plainly: LPA-induced IL-8 release in SKOV3 cells. Particulars: 1 uM LPA alone. It counts as cell-based, human. Here is the method:
(§1) Anti-LPA antibodies inhibit the LPA-dependant release of human CXCL8/IL-8 in conditioned media of SKOV3 ovarian cells. SKOV3 cells (Lot No 4255558, passage 14) were harvested with 2 ml of 1× Trypsin EDTA (Mediatech Inc, Cat. No 25-053-CV) and resuspended in 8 ml of complete medium (10% FBS, Mediatech Inc. Cat. no 35-011-CV). The cells were centrifuged for 5 min ([…]) and re-suspended in 5 ml of complete medium. Cells were counted in duplicate with 0.4% Trypan blue (10 ul cells plus 90 ul Trypan blue, Invitrogen, Cat. No 15250-061) using a hemocytometer. In a 96-well plate, 1×10^5 cells per well were seeded (final volume 100 ul/well). The cells were allowed to attach and form a confluent monolayer by incubating overnight at 37° C. On the following day, cells were gently washed two times with minimum media (1 mg/ml BSA in McCoy's medium with L-glutamine, Mediatech, Cat. No 10-050-CV). The media was adjusted to 1% penicillin/streptomycin (Mediatech, Cat. No 30-002 CI) and 2.2 g/L sodium-bicarbonate (Mediatech, Cat. No 25-035-CI). Next, the cells were serum-starved at 37° C. for exactly 24 h, followed by cytokine stimulation with 1 uM C18:1 LPA (Avanti, Cat. No 857130) dissolved in 1 mg/ml BSA/PBS (Calbiochem, Cat. No 126575) which was pre-incubated in presence or absence of humanized LPA antibody LT3015 (150, 300 or 600 ug/mL) for one hour. Treatments were then added to the cells. After 22 h of cytokine stimulation, the cells were centrifuged for 5 min (13,500 rpm) at 4° C. and the supernatants (cell-conditioned media) were collected. The CXCL8/IL-8 levels in each supernatant were measured using the Quantikine human CXCL8/IL-8 ELISA kit according to vendor instructions (R&D Systems, Minneapolis Minn., Cat. No D8000C). The IL-6 levels were measured by ELISA using the Quantikine human IL-6 immunoassay kit (R&D systems, Cat. No. D6050). Data were analyzed by one-way ANOVA followed by Bonferroni's post test and expressed as human IL-8 or human IL-6 fold increase.

Assay [2] concerns IL-6 release in SKOV3 cells. Put plainly: LPA-induced IL-6 release in SKOV3 cells. Conditions: 1 uM LPA alone. It counts as cell-based, human. Here is the method:
as §1, with “The media was adjusted to 1% penicillin/streptomycin (Mediatech, Cat. No 30-002 CI) and 2.2 g/L sodium-bicarbonate (Mediatech, Cat. No 25-035-CI). Next, the cells were serum-starved at 37° C. for exactly 24 h, followed by cytokine stimulation with 1 uM C18:1 LPA (Avanti, Cat. No 857130) dissolved in 1 mg/ml BSA/PBS (Calbiochem, Cat. No 126575) which was pre-incubated in presence or absence of humanized LPA antibody LT3015 (150, 300 or 600 ug/mL) for one hour. Treatments were then added to the cells. After 22 h of cytokine stimulation, the cells were centrifuged for 5 min (13,500 rpm) at 4° C. and the supernatants (cell-conditioned media) were collected.” left out

Another assay deals with SKOV3 tumor. Nature of the assay: SKOV3 ovarian tumor progression in nude mice. In kind it is in vivo. Conditions: Mean ± S.E. As for the experimental part: Human mAb LT3015 reduced ovarian tumor SKOV3 progression and circulating cytokines in biological fluids. Nude mice were engrafted with either 10 mg/kg LT3015, vehicle, or 2 mg/kg paclitaxel (Taxol). After 56 days, mice were sacrificed and the peritoneal cavities were analyzed for tumor burden and ascites fluid accumulation. Tumors were harvested and final tumor weights were determined along with ascites volumes. Data were analyzed by ANOVA and student's t-test analysis. […] Serum and ascites levels of IL-6, IL-8, GM-CSF and VEGF were measured using ELISA kits from R&D systems, Minneapolis Minn.

On to “Lysophosphatidic acid [LPA, reference compound]”, for which the “increase of IL-8 expression” value in the assay with IL-8 in Caki-1 cells is given as 100%. Besides, the “Percent wound closure (approx.)” value was around 65% in the assay with SKOV3 cells (0.2 uM LPA), around 81% with SKOV3 cells (1.0 uM LPA) and around 89% in the assay on SKOV3 cells (10 uM LPA). In assay [1], the “Human IL-8 Fold Increase (approx).” value is ~7.1##. In addition, in assay [2], the “Human IL-6 Fold Increase (approx).” value is reported as ~29##.

On to `CC(=O)O[C@H]1C(=O)[C@@]2(C)[C@H]([C@H](OC(=O)c3ccccc3)[C@]3(O)C[C@H](OC(=O)[C@H](O)[C@@H](NC(=O)c4ccccc4)c4ccccc4)C(C)=C1C3(C)C)[C@]1(OC(C)=O)CO[C@@H]1C[C@@H]2O` [Taxol, paclitaxel, reference compound], for which the “Ascites volume” value in the assay on SKOV3 tumor was found to be 0.2 ± 0.0 mL.
